According to patent publication EP4740948A1 (Dong Wha Pharm. Co., Ltd., priority 2023, dated 2025):

Assays:
EZH1 = EZH1 (Homo sapiens, UniProt Q92800); experiment: AlphaLISA enzyme activity inhibition, EZH1; assay type: biochemical; conditions: for inhibition at 0.005 µM: 5nM test substance; for inhibition at 0.01 µM: 10nM test substance
Method in brief: (§1)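 EZH1 or EZH2 was mixed with compound at 5 nM or 10 nM final in 20 mM Tris pH 8.0, 0.1% BSA, 0.5 mM DTT, then histone H3 peptide and SAM were added. After 2 h reaction, AlphaLISA acceptor and donor beads detected methylation; inhibition rate was calculated against DMSO control.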

MIA-PaCa-2 cells = experiment: Cancer cell proliferation inhibition (Cell Counting Kit-8), pancreatic cancer cell line; assay type: cell-based; conditions: Homo sapiens, MIA PaCa-2, 264 h, 1000 nM, cultured seven to 11 days; read-out: % inhibition rate MIA-Paca2
Method in brief: (§2)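 Single-concentration growth test: compound at 1000 nM was applied to cells seeded at 100 to 1,000 per well and cultured seven to 11 days. Proliferation was then quantified with Cell Counting Kit-8, and percent inhibition was taken relative to control wells.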

MKN-45 cells = experiment: Cancer cell proliferation inhibition (Cell Counting Kit-8), gastric cancer cell line; assay type: cell-based; conditions: Homo sapiens, MKN-45, 264 h, 1000 nM, cultured seven to 11 days; read-out: % inhibition rate MKN -45
Method in brief: (§3)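 Cells grown in RPMI1640, McCoy's 5a, L-15 or DMEM with 10% FBS, seeded at 100 to 1,000 cells/well and treated with test substance at 1000 nM for 7 to 11 days. Viability read by CCK-8; % inhibition = {1−(test/control)} × 100.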

NCI-H1299 cells = experiment: Cancer cell proliferation inhibition (Cell Counting Kit-8), lung cancer cell line; assay type: cell-based; conditions: Homo sapiens, NCI-H1299, 264 h, 1000 nM, cultured seven to 11 days; read-out: % inhibition rate NCI-H129 9
Method in brief: as §2

G401 cells = experiment: Cancer cell proliferation inhibition (Cell Counting Kit-8), rhabdoid tumor cell line; assay type: cell-based; conditions: Homo sapiens, G-401, 264 h, 1000 nM, cultured seven to 11 days; read-out: % inhibition rate G401
Method in brief: as §3

Lovo cells = experiment: Cancer cell proliferation inhibition (Cell Counting Kit-8), colorectal cancer cell line; assay type: cell-based; conditions: Homo sapiens, LoVo, 264 h, 1000 nM, cultured seven to 11 days; read-out: % inhibition rate LoVo
Method in brief: as §2

SW-13 cells = experiment: Cancer cell proliferation inhibition (Cell Counting Kit-8), adrenal cancer cell line; assay type: cell-based; conditions: Homo sapiens, SW13, 264 h, 1000 nM, cultured seven to 11 days; read-out: % inhibition rate SW-13
Method in brief: as §2

EZH2 = EZH2 (Homo sapiens, UniProt Q15910); experiment: AlphaLISA enzyme activity inhibition, EZH2; assay type: biochemical; conditions: for inhibition at 0.005 µM: 5nM test substance; for inhibition at 0.01 µM: 10nM test substance
EZH2, sequence (Q15910 whole entry, species assumed): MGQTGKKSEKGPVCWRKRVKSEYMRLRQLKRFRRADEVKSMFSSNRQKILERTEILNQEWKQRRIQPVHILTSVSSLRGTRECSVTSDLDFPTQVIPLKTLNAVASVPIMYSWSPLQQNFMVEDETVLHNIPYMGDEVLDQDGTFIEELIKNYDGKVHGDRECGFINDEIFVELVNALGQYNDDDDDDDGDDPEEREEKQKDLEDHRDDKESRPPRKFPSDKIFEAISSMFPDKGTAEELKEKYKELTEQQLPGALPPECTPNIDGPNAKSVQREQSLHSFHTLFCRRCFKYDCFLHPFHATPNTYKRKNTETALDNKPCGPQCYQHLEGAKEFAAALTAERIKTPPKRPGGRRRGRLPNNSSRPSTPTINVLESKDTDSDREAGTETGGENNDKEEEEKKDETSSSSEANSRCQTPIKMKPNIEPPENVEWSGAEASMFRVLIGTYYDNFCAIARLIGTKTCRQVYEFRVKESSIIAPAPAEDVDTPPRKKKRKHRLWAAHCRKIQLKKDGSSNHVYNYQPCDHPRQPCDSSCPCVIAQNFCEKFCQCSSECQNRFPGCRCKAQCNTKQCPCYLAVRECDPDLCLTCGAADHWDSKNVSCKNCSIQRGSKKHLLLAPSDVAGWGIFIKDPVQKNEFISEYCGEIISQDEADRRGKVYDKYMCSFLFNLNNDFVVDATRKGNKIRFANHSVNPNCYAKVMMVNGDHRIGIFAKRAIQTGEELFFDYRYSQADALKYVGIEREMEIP
EZH2, sequence (O75530 whole entry partner, species assumed): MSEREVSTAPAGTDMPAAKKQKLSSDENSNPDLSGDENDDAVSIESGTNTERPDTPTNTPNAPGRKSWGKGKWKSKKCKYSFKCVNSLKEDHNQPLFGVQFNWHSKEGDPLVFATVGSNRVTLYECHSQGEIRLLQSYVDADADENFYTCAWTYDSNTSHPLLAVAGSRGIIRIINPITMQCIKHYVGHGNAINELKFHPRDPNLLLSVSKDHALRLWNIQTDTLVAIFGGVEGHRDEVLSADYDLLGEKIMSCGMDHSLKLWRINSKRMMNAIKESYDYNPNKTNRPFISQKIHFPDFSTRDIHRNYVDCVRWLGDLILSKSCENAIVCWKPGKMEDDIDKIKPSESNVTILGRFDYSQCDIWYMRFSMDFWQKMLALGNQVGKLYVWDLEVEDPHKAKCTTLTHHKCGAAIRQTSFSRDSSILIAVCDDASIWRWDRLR
EZH2, sequence (Q15022 whole entry partner, species assumed): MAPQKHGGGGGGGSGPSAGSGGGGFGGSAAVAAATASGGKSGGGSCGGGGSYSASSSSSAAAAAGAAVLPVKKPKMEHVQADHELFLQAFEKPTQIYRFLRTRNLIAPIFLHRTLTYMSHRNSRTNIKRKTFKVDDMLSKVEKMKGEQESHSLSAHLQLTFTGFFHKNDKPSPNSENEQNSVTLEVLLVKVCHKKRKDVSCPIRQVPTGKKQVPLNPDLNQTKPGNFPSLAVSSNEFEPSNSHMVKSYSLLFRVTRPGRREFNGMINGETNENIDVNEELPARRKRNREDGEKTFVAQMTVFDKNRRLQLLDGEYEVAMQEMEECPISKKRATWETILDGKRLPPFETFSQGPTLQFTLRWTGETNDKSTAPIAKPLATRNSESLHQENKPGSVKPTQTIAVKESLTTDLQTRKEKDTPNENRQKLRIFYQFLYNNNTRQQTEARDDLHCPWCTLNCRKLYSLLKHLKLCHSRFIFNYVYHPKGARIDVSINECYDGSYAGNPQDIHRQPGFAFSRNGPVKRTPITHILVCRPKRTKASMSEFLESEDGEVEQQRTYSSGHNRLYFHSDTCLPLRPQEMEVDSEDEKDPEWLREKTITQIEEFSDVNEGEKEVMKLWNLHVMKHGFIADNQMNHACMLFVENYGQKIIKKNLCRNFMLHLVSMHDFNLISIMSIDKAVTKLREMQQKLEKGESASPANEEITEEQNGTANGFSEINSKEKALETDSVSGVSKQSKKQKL
Method in brief: as §1

EZH1, sequence (Q92800 whole entry, species assumed): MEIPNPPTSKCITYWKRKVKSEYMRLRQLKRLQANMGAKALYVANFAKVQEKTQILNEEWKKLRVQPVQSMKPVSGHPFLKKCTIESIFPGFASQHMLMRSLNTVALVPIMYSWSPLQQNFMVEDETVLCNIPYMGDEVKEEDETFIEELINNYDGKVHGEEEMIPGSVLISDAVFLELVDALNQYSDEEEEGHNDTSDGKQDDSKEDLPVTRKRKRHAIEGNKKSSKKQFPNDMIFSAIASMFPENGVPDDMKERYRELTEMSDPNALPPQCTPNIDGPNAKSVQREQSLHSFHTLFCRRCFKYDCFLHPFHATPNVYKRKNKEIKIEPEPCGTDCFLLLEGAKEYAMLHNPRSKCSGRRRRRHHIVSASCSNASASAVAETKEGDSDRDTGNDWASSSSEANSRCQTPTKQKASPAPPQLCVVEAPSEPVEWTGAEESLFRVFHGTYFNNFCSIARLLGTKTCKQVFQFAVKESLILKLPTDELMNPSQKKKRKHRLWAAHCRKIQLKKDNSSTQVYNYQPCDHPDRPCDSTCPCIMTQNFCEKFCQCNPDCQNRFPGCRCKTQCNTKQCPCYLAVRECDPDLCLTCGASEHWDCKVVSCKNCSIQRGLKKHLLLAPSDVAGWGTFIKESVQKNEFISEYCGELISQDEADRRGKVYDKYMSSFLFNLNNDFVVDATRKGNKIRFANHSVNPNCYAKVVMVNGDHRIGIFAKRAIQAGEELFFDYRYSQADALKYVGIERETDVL
EZH1, sequence (O75530 whole entry partner, species assumed): as the sequence (O75530 whole entry partner, species assumed) above
EZH1, sequence (Q15022 whole entry partner, species assumed): as the sequence (Q15022 whole entry partner, species assumed) above

| Compound | inhibition at 0.005 µM (EZH1) [%] | inhibition at 0.01 µM (EZH1) [%] | inhibition at 1 µM (MIA-PaCa-2 cells) [%] | inhibition at 1 µM (MKN-45 cells) [%] | inhibition at 1 µM (NCI-H1299 cells) [%] | inhibition at 1 µM (G401 cells) [%] | inhibition at 1 µM (Lovo cells) [%] | inhibition at 1 µM (SW-13 cells) [%] | inhibition at 0.005 µM (EZH2) [%] | inhibition at 0.01 µM (EZH2) [%] |
| --- | --- | --- | --- | --- | --- | --- | --- | --- | --- | --- |
| CSc1cc(C)[nH]c(=O)c1CNC(=O)c1cc(-c2ccc(N3C[C@@H](C)O[C@@H](C)C3)nc2)c2c(c1C)OC(C)([C@H]1CC[C@H](N(C)CCCC(F)(F)F)CC1)O2 (stereo partly drawn) [Compound 113] | 32.5 | 68.8 | ≤ 30 | ≤ 30 | ≤ 30 | ≥ 70 | ≥ 70 | 30 to 70 | 96.7 | 100 |
| CSc1cc(C)[nH]c(=O)c1CNC(=O)c1cc(-c2ccc(N3C[C@@H](C)O[C@@H](C)C3)nc2)c2c(c1C)OC(C)([C@H]1CC[C@H](N(C)C3CCCCC3)CC1)O2 (stereo partly drawn) [Compound 114, 2-(trans-4-(cyclohexyl(methyl)amino)cyclohexyl)-7-(6-((2S,6R)-2,6-dimethylmorpholino)pyridin-3-yl)-2,4-dimethyl-N-((6-methyl-4-(methylthio)-2-oxo-1,2-dihydropyridin-3-yl)methyl)benzo[d][1,3]dioxole-5-carboxamide] | 28.6 | 38.2 | ≤ 30 | ≤ 30 | ≤ 30 | ≥ 70 | ≥ 70 | 30 to 70 | 45.8 | 91.7 |
| CSc1cc(C)[nH]c(=O)c1CNC(=O)c1cc(-c2ccc(N3C[C@@H](C)O[C@@H](C)C3)nc2)c2c(c1C)OC(C)([C@H]1CC[C@H](N(C)C(=O)C(F)(F)F)CC1)O2 (stereo partly drawn) [Compound 115, 7-(6-((2S,6R)-2,6-dimethylmorpholino)pyridin-3-yl)-2,4-dimethyl-N-((6-methyl-4-(methylthio)-2-oxo-1,2-dihydropyridin-3-yl)methyl)-2-(trans-4-(2,2,2-trifluoro-N-methylacetamido)cyclohexyl)benzo[d][1,3]dioxole-5-carboxamide] | 6.1 | 9.6 | ≤ 30 | ≤ 30 | ≤ 30 | 30 to 70 | ≥ 70 | ≤ 30 | 37.3 | 85.8 |
